Among the data in BindingDB's records for doi:10.1021/jm00164a014 (Wellcome Research Laboratories, 1990) are IC50 values, retold here.

The target in assay [1] is ATIC (Sus scrofa). Nature of the assay: Inhibition activity against AICAR formyltransferase from hog liver.
Assay [2] deals with Trifunctional purine biosynthetic protein adenosine-3 (Mus musculus) (UniProt Q64737). Nature of the assay: Inhibition activity against Glycinamide ribonucleotide transformylase (GAR-TFase) from L cell.

Structures are written as SMILES.

As usually defined, the IC50 is the point on the concentration scale where inhibition reaches its midpoint. A high value points to a need for much substance.

Chain of Trifunctional purine biosynthetic protein adenosine-3 (Mus musculus) (Q64737 whole entry, looked up): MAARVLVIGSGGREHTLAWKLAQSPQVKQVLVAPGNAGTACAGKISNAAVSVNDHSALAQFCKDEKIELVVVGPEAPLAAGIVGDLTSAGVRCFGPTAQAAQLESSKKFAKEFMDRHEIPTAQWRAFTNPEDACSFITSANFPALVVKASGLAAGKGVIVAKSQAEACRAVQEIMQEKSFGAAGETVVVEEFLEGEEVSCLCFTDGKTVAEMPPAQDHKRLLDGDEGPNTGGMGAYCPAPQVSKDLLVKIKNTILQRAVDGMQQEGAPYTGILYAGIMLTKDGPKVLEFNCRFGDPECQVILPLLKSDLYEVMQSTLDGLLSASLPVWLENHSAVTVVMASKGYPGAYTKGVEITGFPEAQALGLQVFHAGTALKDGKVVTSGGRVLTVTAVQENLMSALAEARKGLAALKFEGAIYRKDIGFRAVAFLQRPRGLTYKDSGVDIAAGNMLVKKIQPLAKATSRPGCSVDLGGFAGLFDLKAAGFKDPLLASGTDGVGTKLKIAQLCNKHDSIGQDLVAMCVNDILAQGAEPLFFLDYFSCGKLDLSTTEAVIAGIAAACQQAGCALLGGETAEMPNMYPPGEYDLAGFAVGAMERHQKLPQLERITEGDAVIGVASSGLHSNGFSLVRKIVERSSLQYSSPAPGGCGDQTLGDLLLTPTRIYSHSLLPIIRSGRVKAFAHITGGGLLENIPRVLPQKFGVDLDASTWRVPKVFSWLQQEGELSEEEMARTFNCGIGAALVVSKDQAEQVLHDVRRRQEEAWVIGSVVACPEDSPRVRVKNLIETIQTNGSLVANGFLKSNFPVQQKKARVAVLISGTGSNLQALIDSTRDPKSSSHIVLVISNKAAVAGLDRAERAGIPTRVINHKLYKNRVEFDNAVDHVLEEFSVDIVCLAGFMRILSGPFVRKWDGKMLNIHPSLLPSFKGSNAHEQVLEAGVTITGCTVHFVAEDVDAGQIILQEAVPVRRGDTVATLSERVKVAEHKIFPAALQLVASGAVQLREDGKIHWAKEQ

With `CN(CCCc1c(N)nc(N)[nH]c1=O)c1ccc(C(=O)NC(CCC(=O)O)C(=O)O)cc1` (configuration not stated), the IC50 was determined as 68 µM in assay [1] and 4.3 µM in assay [2].
